Results reported in the NIST ThermoML archive (doi:10.1021/je101144k).
± gives the expanded uncertainty stated by the source.

Columns and labels:
[1] = 101.33 kPa, Liquid; for viscosity: Concentric cylinders viscometry; for mass density: Pycnometric method
[2] = molar heat capacity at constant pressure; conditions: 101.33 kPa, Liquid, Small sample (50 mg) DSC

NCCO [2-aminoethan-1-ol]
Conditions | mass density, 303.15 K [kg/m3] | mass density, 313.15 K [kg/m3] | mass density, 323.15 K [kg/m3] | molar heat capacity at constant pressure, 303.15 K [J/K/mol] | molar heat capacity at constant pressure, 313.15 K [J/K/mol] | molar heat capacity at constant pressure, 323.15 K [J/K/mol] | viscosity, 303.15 K [mPa·s] | viscosity, 313.15 K [mPa·s] | viscosity, 323.15 K [mPa·s]
[1] | 1008.7 ± 1.3 | 1000.4 ± 1.3 | 992.5 ± 1.3 | – | – | – | 15.36 ± 0.32 | 10.26 ± 0.21 | 7.19 ± 0.15
[2] | – | – | – | 163.7 ± 3.7 | 167.98 ± 3.7 | 172.25 ± 3.7 | – | – | –
